This assay deals with Human immunodeficiency virus 1. Kind of assay: Inhibition of recombinant HIV1 protease at 100 ug/ml.

As for `CC(=O)N[C@H](C(=O)N[C@H](C(=O)N[C@@H](CC(C)C)[C@@H](O)CC(=O)N[C@@H](C)C(=O)N[C@@H](CC(C)C)[C@@H](O)CC(=O)O)C(C)C)C(C)C`, the inhibition was found to be 98.5%.

As to H-LLEYVF-OH, the inhibition was determined as 52.3%.

Turning to H-LLEYVM-OH, the inhibition was found to be 47.2%.

As to H-LLEYVW-OH, the inhibition stood at 64.9%.

As to H-LLEYVY-OH, the inhibition turned out to be 58.6%.

As a reminder, the inhibition is the share of the control response that was lost under treatment.

(Values after ChEMBL document CHEMBL1143941, “Design, synthesis and structure-activity study of shorter hexa peptide analogues as HIV-1 protease inhibitors” (Bioorg Med Chem, 2008).)
